Data taken from article PMC11220700, “Activation and Purification of ß‐Glucocerebrosidase by Exploiting its Transporter LIMP‐2 – Implications for Novel Treatment Strategies in Gaucher's and Parkinson's Disease” (Advanced Science, 2024).
“Also recorded” adds a separate entry of the source. No end group written: not given here.

Columns and labels:
[1] = tested on: Parkinson's disease progression; settings: ClinicalTrials.gov ID NCT02906020; cited from earlier work
Excerpt: In the context of diseases, where lysosomal GCase activity is reduced, activation of either impaired mutated GCase or residual wt GCase could provide a therapeutic strategy for restoring lysosomal function. Both in GBA1‐associated and in GBA1‐wt PD models and patients, ongoing preclinical and clinical studies are already exploring this possibility, predominantly at the stage of screening for GCase activators for the treatment of Gaucher and Parkinson's disease.^[ [57], [58] ^] Despite the expected increase of the prevalence of PD and worldwide disease burden due to increasing life expectancy a ...

[2] = tested on: recombinant GCase (Cerezyme/imiglucerase); assay: 4MU GCase activity assay with recombinant enzyme Cerezyme/imiglucerase; format: biochemical; settings: varying peptide concentrations, 4MU substrate, detergent‐free, n = 3
Experimental: Activity of GCase‐containing samples (recombinant protein, cell lysate, LE fractions, conditioned culture medium) was measured using the synthetic substrate 4‐methylumbelliferyl‐β‐D‐glucopyranoside (4MU, Merck Millipore, Billerica, MA, United States, #M3633). […] of the sample (cell supernatant, SEC fractions) or 2.5 µg of total protein from whole‐cell lysates were added to the well of a black 96‐well Maxisorp plate (ThermoFisher Scientific Inc., Waltham, MA, United States, #437 111). The reaction volume was then increased to 100 µL with GCase activity buffer (see paragraph “Cell Lysis”) and a final concentration of 1 µM of 4MU substrate was added. After incubation at 37 °C for 30 min, the reaction was stopped by adding 100 µL of stop solution (0.1 M glycine, pH 10.4). GCase activity was quantified via fluorescence of released 4‐methylumbelliferone (endpoint measurement) using an Infinite 200 Pro (TECAN, Männedorf, Switzerland), SpectraMax Gemini (Molecular Devices, San José, CA, United States) or ClarioStar (BMG LABTECH, Ortenberg, Germany) multiplate reader (λ ex: 365 nm; λ em: 445 nm).
For all activity assays in the presence of recombinant LIMP‐2 or synthetic peptides, sodium taurocholate, and Triton X‐100 were omitted from the reaction to not hinder protein–protein interaction. […]

[3] = tested on: lysosomal GCase in primary human fibroblasts (CTRL‐2, PD‐1, PD‐2); assay: Live cell measurement of lysosomal GCase activity (PFB‐Gluc); format: cell-based; settings: 10 µM peptide, 48 h, area between curves (total minus bafilomycin), n = 3
Experimental: GCase activity inside the lysosomes of living cells was measured via the fluorescent probe PFB‐Gluc (ThermoFisher Scientific Inc., Waltham, MA, United States, #P11947). The experimental procedure was adapted from Cuddy and Mazzulli.^[ [72] ^] Primary human fibroblasts were seeded at 20 000 cells per well on a black 96‐well cell culture dish with transparent bottom (Corning, Corning, NY, United States, #3603). For each replicate, two wells were seeded. […] The next day, the medium was changed again to 50 µL of fresh media containing treatment. On day 3, one of the two‐seeded wells for each replicate (control well) was treated with 200 nM bafilomycin 1A (Baf, Santa Cruz Biotechnology, Dallas, TX, United States, #sc‐201550A) for 1 h to inhibit lysosomal enzyme activity. […] Immediately after, the first fluorescence measurement was taken (PFB‐Gluc: λ ex: 485 nm; λ em: 538 nm; cutoff: 495 nm). The cells were kept at 37 °C and measured every 30 min for a total of 180 min. […]
For data evaluation, PFB‐Gluc measurements over time were baseline‐corrected and then normalized per well to the respective CellTag 700 signal (cell volume). Replicates were arranged in an XY diagram with their respective Baf control and the AUC for both curves was calculated. Lysosomal activity was then calculated by subtracting the baf control (non‐lysosomal activity) AUC from the non‐inhibited AUC (total activity).

[4] = tested on: primary human fibroblasts (CTRL‐2, PD‐1, PD‐2); assay: Toxicity assessment via LDH release; format: cell-based
Experimental: Primary human fibroblasts were seeded on a 96‐well plate at 3 × 10^4 cells per well. The next day, the medium was replaced with a 50 µL fresh fibroblast medium containing various concentrations of L2H5‐wt peptide (0–20 µM). The cells were incubated for 72 h before the conditioned medium was harvested. LDH release to the cell medium as a marker for cell death was measured using a CyQuant LDH Cytotoxicity Assay Kit (Invitrogen, Waltham, MA, United States #C20300) following the manufacturer's instructions. For each condition, three wells were seeded and measured as triplicates. A480 and […] absorption values were measured using a ClarioStar (BMG LABTECH, Ortenberg, Germany) multiplate reader. LDH enzyme activity was determined by calculating the difference between A480 and A690 values for each well.

[5] = Precipitation / solubility of peptide in assay buffers; format: physicochemical; settings: lysosomal pH 5.0, higher concentrations
Experimental: Activity of GCase‐containing samples (recombinant protein, cell lysate, LE fractions, conditioned culture medium) was measured using the synthetic substrate 4‐methylumbelliferyl‐β‐D‐glucopyranoside (4MU, Merck Millipore, Billerica, MA, United States, #M3633). […] of the sample (cell supernatant, SEC fractions) or 2.5 µg of total protein from whole‐cell lysates were added to the well of a black 96‐well Maxisorp plate (ThermoFisher Scientific Inc., Waltham, MA, United States, #437 111). The reaction volume was then increased to 100 µL with GCase activity buffer (see paragraph “Cell Lysis”) and a final concentration of 1 µM of 4MU substrate was added. […] GCase activity was quantified via fluorescence of released 4‐methylumbelliferone (endpoint measurement) using an Infinite 200 Pro (TECAN, Männedorf, Switzerland), SpectraMax Gemini (Molecular Devices, San José, CA, United States) or ClarioStar (BMG LABTECH, Ortenberg, Germany) multiplate reader (λ ex: 365 nm; λ em: 445 nm). […]
For interaction of GCase with L2H5‐wt peptide, recombinant GCase was produced in‐house (see paragraph “Expression and Purification of His‐tagged GCase‐wt Protein”) and labeled as described for Cerezyme. […] For each replicate, a twofold dilution series of 16 samples was measured, starting at 125 µM ligand (L2H5‐wt) concentration. […]

[6] = tested on: HEK 293T cells; settings: 5 µM L2H5‐wt, LC‐MS/MS
Experimental: HEK 293T cells were seeded on 10 cm dishes. When confluence was reached, the cells were treated with 5 µM of L2H5‐wt for 2 and 24 h before harvesting. LE fractions were generated as described before (see “Expression and enrichment of lysosomes from HEK 293T cells”). Proteome analysis was performed as described in the following:
The LE fractions were processed using the single‐pot, solid‐phase‐enhanced sample‐preparation (SP3) approach.^[ [74] ^] The proteins were then digested using trypsin overnight at 37 °C. The resultant peptide solution was purified by solid phase extraction in C18 StageTips.^[ [75] ^]
Samples were analyzed using an Orbitrap Exploris 480 mass spectrometer (Thermo Fisher Scientific, Waltham, MA, United States) coupled to an EASY‐nLC 1200 UHPLC system (Thermo Fisher Scientific, Waltham, MA, United States). Peptides were separated in an in‐house packed 60‐cm analytical column (inner diameter: 75 µm; ReproSil‐Pur 120 C18‐AQ 1.9‐µm silica particles, Dr. Maisch, Ammerbuch, Germany) by online reversed‐phase chromatography through a 120‐min gradient of 2.4–32% v/v acetonitrile with 0.1% v/v formic acid at a nanoflow rate of 250 nl min^−1. The eluted peptides were sprayed directly by electrospray ionization into the mass spectrometer. […]

[7] = SEC of FRed-L2H5-wt; format: physicochemical; settings: Superdex 200 Increase 10/300 GL, PBS, 0.5 mL min^−1, UV280 and UV580
Experimental: Two hundred microliters of protein solution were injected using a 500 μL loop. Fractions of 1000 μL were collected. Based on the UV280 and UV580 elution profiles, fraction 15 containing monomeric […] concentrated using a 10K Amicon ultra 0.5 filter unit.

Question: Which clinical trial outcome [1] does the source give for `CC(C)(NC(=O)O[C@@H]1CN2CCC1CC2)c1csc(-c2ccc(F)cc2)n1` [venglustat] here?
Answer: Its clinical trial outcome is “changing GluCer levels alone may not be sufficient to positively affect disease progression”.

Question: Which “effect on GCase activity, concentration dependence” value [2] does the source give for “KFERQGSGSQVHFLREDDEAMDKAYQSGSGYGRKKRRQRRR [L2H5‐3xD]” here?
Answer: The value was “no effect on GCase activity”.

Question: What about the “lysosomal GCase activity” value [3] of the same compound?
Answer: The value was “did not affect lysosomal GCase activity; also recorded: did not elevate lysosomal GCase activity”.

Question: For “KFERQGSGSQVHFLREIIEAMLKAYQSGSGYGRKKRRQRRR-NH2 [L2H5‐wt]”, which “concentration tolerated (no increase in cell death, LDH release)” value ([4]; 0–20 µM, 72 h, CTRL‐2, PD‐1, PD‐2 fibroblasts, n = 3) is on record?
Answer: The value was “up to 10 µM”.

Question: And the “LDH release at 20 µM” value ([4]; 20 µM, 72 h, CTRL‐2, PD‐1, PD‐2 fibroblasts, n = 3)?
Answer: Its value is “strong increase in LDH release; also recorded: LDH activity in the medium was significantly increased”.

Question: What about the “concentration at which cell toxicity starts” value ([4]; primary fibroblasts) of the same compound?
Answer: The value was ≥ 20 µM.

Question: And the “solubility in MST measurement” value [5]?
Answer: The value was “insufficient solubility of the peptide at higher concentrations”.

Question: And the “L2H5‐wt‐specific tryptic peptides detected in LE fractions, 2 h” value [6]?
Answer: Its value is “peptides 2 and 3; also recorded: could be detected by mass spectrometry 2 h”.

Question: With “QVHFLREIIEAMLKAYQ [FRed‐L2H5‐wt, L2H5‐wt peptide fused to FusionRed, expressed in E. coli]” as the compound, how does the “aggregation in SEC profile” value [7] read?
Answer: Its value is “The earlier peak likely consists of aggregated protein”.
